From PubChem BioAssay AID2060897 (Molecular Pharmacology Branch, DTP, NCI, 2025)
One block for each compound: values may come before it.

Test system: 966289-007-R4-J1-PDC complex spheroid viability
Assay: Anticancer human tumor 966289-007-R4-J1-PDC patient-derived pancreatic adenocarcinoma cell line growth inhibition [RAS]
Details: for viability, T/C: stronger effect = lower value
In short: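 Agents were tested in combination matrices in half-log decrements from a top concentration at or near clinical Cmax (10 microM if undetermined). Targets were multi-cell spheroids of tumour lines plus HUVEC and MSC stromal cells.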

[1] = curve of first compound, second compound 0.000949 µM
[2] = curve of first compound, second compound 0.003 µM
[3] = curve of first compound, second compound 0.00949 µM
[4] = curve of first compound, second compound 0.03 µM
[5] = curve of first compound, second compound 0.0949 µM
[6] = curve of first compound, second compound 0.3 µM
[7] = second compound 0.000949 µM, first compound 0.00316 µM
[8] = second compound 0.000949 µM, first compound 0.01 µM
[9] = second compound 0.000949 µM, first compound 0.0316 µM
[10] = second compound 0.000949 µM, first compound 0.1 µM
[11] = second compound 0.000949 µM, first compound 0.316 µM
[12] = second compound 0.000949 µM, first compound 1 µM
[13] = second compound 0.003 µM, first compound 0.00316 µM
[14] = second compound 0.003 µM, first compound 0.01 µM
[15] = second compound 0.003 µM, first compound 0.0316 µM
[16] = second compound 0.003 µM, first compound 0.1 µM
[17] = second compound 0.003 µM, first compound 0.316 µM
[18] = second compound 0.003 µM, first compound 1 µM
[19] = second compound 0.00949 µM, first compound 0.00316 µM
[20] = second compound 0.00949 µM, first compound 0.01 µM
[21] = second compound 0.00949 µM, first compound 0.0316 µM
[22] = second compound 0.00949 µM, first compound 0.1 µM
[23] = second compound 0.00949 µM, first compound 0.316 µM
[24] = second compound 0.00949 µM, first compound 1 µM
[25] = second compound 0.03 µM, first compound 0.00316 µM
[26] = second compound 0.03 µM, first compound 0.01 µM
[27] = second compound 0.03 µM, first compound 0.0316 µM
[28] = second compound 0.03 µM, first compound 0.1 µM
[29] = second compound 0.03 µM, first compound 0.316 µM
[30] = second compound 0.03 µM, first compound 1 µM
[31] = second compound 0.0949 µM, first compound 0.00316 µM
[32] = second compound 0.0949 µM, first compound 0.01 µM
[33] = second compound 0.0949 µM, first compound 0.0316 µM
[34] = second compound 0.0949 µM, first compound 0.1 µM
[35] = second compound 0.0949 µM, first compound 0.316 µM
[36] = second compound 0.0949 µM, first compound 1 µM
[37] = second compound 0.3 µM, first compound 0.00316 µM
[38] = second compound 0.3 µM, first compound 0.01 µM
[39] = second compound 0.3 µM, first compound 0.0316 µM
[40] = second compound 0.3 µM, first compound 0.1 µM
[41] = second compound 0.3 µM, first compound 0.316 µM
[42] = second compound 0.3 µM, first compound 1 µM
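Further: spheroids exposed to agents for one week before readout.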
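Wherever viability, T/C is given: percent viability relative to DMSO vehicle control wells as 100%.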

SMILES: CCN1CCN(Cc2ccc(Nc3ncc(F)c(-c4cc(F)c5nc(C)n(C(C)C)c5c4)n3)nc2)CC1 + CCn1c(-c2cccnc2C(C)OC)c2c3cc(ccc31)N1CCOC(CC(NC(=O)C(C(C)C)N(C)C(=O)C3(F)CCN(C(=O)C#CC(C)(C)N(C)C)CC3)C(=O)N3CCCC(N3)C(=O)OCC(C)(C)C2)C1
IC50 [1]: > 1000 nM
IC50 [2]: > 1000 nM
IC50 [3]: > 1000 nM
IC50 [4]: > 1000 nM
IC50 [5]: > 1000 nM
IC50 [6]: > 1000 nM
viability, T/C [7]: 107%
viability, T/C [8]: 84.9%
viability, T/C [9]: 104%
viability, T/C [10]: 81.3%
viability, T/C [11]: 85.6%
viability, T/C [12]: 79.3%
viability, T/C [13]: 106%
viability, T/C [14]: 78.2%
viability, T/C [15]: 93.7%
viability, T/C [16]: 79.8%
viability, T/C [17]: 93.4%
viability, T/C [18]: 84.1%
viability, T/C [19]: 69.9%
viability, T/C [20]: 90.2%
viability, T/C [21]: 104%
viability, T/C [22]: 90.4%
viability, T/C [23]: 90%
viability, T/C [24]: 78.5%
viability, T/C [25]: 77.8%
viability, T/C [26]: 83.3%
viability, T/C [27]: 99.5%
viability, T/C [28]: 81.4%
viability, T/C [29]: 90.9%
viability, T/C [30]: 78.9%
viability, T/C [31]: 78.4%
viability, T/C [32]: 99.6%
viability, T/C [33]: 112%
viability, T/C [34]: 99.8%
viability, T/C [35]: 94.4%
viability, T/C [36]: 79.9%
viability, T/C [37]: 83.3%
viability, T/C [38]: 88.6%
viability, T/C [39]: 101%
viability, T/C [40]: 87.7%
viability, T/C [41]: 91%
viability, T/C [42]: 81.3%

SMILES: C=CC(=O)Nc1cc(Nc2nccc(-c3cn(C)c4ccccc34)n2)c(OC)cc1N(C)CCN(C)C + CCn1c(-c2cccnc2C(C)OC)c2c3cc(ccc31)N1CCOC(CC(NC(=O)C(C(C)C)N(C)C(=O)C3(F)CCN(C(=O)C#CC(C)(C)N(C)C)CC3)C(=O)N3CCCC(N3)C(=O)OCC(C)(C)C2)C1
IC50 [1]: > 1000 nM
IC50 [2]: > 1000 nM
IC50 [3]: > 1000 nM
IC50 [4]: > 1000 nM
IC50 [5]: > 1000 nM
IC50 [6]: > 1000 nM
viability, T/C [7]: 101%
viability, T/C [8]: 101%
viability, T/C [9]: 99.9%
viability, T/C [10]: 56.5%
viability, T/C [11]: 77.5%
viability, T/C [12]: 67.8%
viability, T/C [13]: 106%
viability, T/C [14]: 84.3%
viability, T/C [15]: 82.1%
viability, T/C [16]: 56.4%
viability, T/C [17]: 55.1%
viability, T/C [18]: 61.9%
viability, T/C [19]: 87%
viability, T/C [20]: 97%
viability, T/C [21]: 90.8%
viability, T/C [22]: 66.4%
viability, T/C [23]: 78.5%
viability, T/C [24]: 78.4%
viability, T/C [25]: 65%
viability, T/C [26]: 90%
viability, T/C [27]: 99.3%
viability, T/C [28]: 69.8%
viability, T/C [29]: 92.7%
viability, T/C [30]: 77.5%
viability, T/C [31]: 76.9%
viability, T/C [32]: 93.5%
viability, T/C [33]: 117%
viability, T/C [34]: 67.8%
viability, T/C [35]: 113%
viability, T/C [36]: 67.7%
viability, T/C [37]: 81.5%
viability, T/C [38]: 107%
viability, T/C [39]: 111%
viability, T/C [40]: 101%
viability, T/C [41]: 108%
viability, T/C [42]: 90.8%

Now from value to compound, other results behind:

IC50 [1]: > 1000 nM
IC50 [2]: > 1000 nM
IC50 [3]: 940 nM
IC50 [4]: 848 nM
IC50 [5]: > 1000 nM
IC50 [6]: 661 nM
SMILES: O=C(c1ccc(F)c(F)c1Nc1ccc(I)cc1F)N1CC(O)([C@@H]2CCCCN2)C1 + CCn1c(-c2cccnc2C(C)OC)c2c3cc(ccc31)N1CCOC(CC(NC(=O)C(C(C)C)N(C)C(=O)C3(F)CCN(C(=O)C#CC(C)(C)N(C)C)CC3)C(=O)N3CCCC(N3)C(=O)OCC(C)(C)C2)C1
viability, T/C [7]: 95.6%
viability, T/C [8]: 94.9%
viability, T/C [9]: 102%
viability, T/C [10]: 84.4%
viability, T/C [11]: 78.9%
viability, T/C [12]: 60.3%
viability, T/C [13]: 76.5%
viability, T/C [14]: 82.9%
viability, T/C [15]: 99.5%
viability, T/C [16]: 79.5%
viability, T/C [17]: 86.1%
viability, T/C [18]: 59.4%
viability, T/C [19]: 79.6%
viability, T/C [20]: 84.6%
viability, T/C [21]: 85.2%
viability, T/C [22]: 89%
viability, T/C [23]: 83.9%
viability, T/C [24]: 48.1%
viability, T/C [25]: 72.8%
viability, T/C [26]: 86.5%
viability, T/C [27]: 101%
viability, T/C [28]: 74.1%
viability, T/C [29]: 84.1%
viability, T/C [30]: 44.3%
viability, T/C [31]: 88%
viability, T/C [32]: 83.3%
viability, T/C [33]: 99.1%
viability, T/C [34]: 82.5%
viability, T/C [35]: 72.6%
viability, T/C [36]: 56%
viability, T/C [37]: 89.4%
viability, T/C [38]: 78.5%
viability, T/C [39]: 84.2%
viability, T/C [40]: 82.9%
viability, T/C [41]: 62.9%
viability, T/C [42]: 42.8%

IC50 [1]: > 1000 nM
IC50 [2]: > 1000 nM
IC50 [3]: > 1000 nM
IC50 [4]: > 1000 nM
IC50 [5]: > 1000 nM
IC50 [6]: > 1000 nM
SMILES: C=CC(=O)N1CCN(c2nc(OCC3CCCN3C)nc3c(F)c(-c4nc(N)cc(C)c4C(F)(F)F)c(Cl)cc23)C(C)C1 (centres undefined) + CCn1c(-c2cc(N3CCN(C)CC3)cnc2C(C)OC)c2c3cc(ccc31)-c1csc(n1)CC(NC(=O)C1CC1C)C(=O)N1CCCC(N1)C(=O)OCC(C)(C)C2
viability, T/C [7]: 131%
viability, T/C [8]: 119%
viability, T/C [9]: 138%
viability, T/C [10]: 69.5%
viability, T/C [11]: 77.9%
viability, T/C [12]: 94.2%
viability, T/C [13]: 115%
viability, T/C [14]: 138%
viability, T/C [15]: 83.6%
viability, T/C [16]: 78.6%
viability, T/C [17]: 85.3%
viability, T/C [18]: 86.1%
viability, T/C [19]: 101%
viability, T/C [20]: 111%
viability, T/C [21]: 105%
viability, T/C [22]: 74.1%
viability, T/C [23]: 90.3%
viability, T/C [24]: 94.4%
viability, T/C [25]: 80.2%
viability, T/C [26]: 124%
viability, T/C [27]: 108%
viability, T/C [28]: 82%
viability, T/C [29]: 110%
viability, T/C [30]: 87.7%
viability, T/C [31]: 102%
viability, T/C [32]: 128%
viability, T/C [33]: 98.3%
viability, T/C [34]: 104%
viability, T/C [35]: 125%
viability, T/C [36]: 103%
viability, T/C [37]: 79%
viability, T/C [38]: 137%
viability, T/C [39]: 128%
viability, T/C [40]: 97.8%
viability, T/C [41]: 135%
viability, T/C [42]: 106%

IC50 (curve of compound): 1.62 nM [middle of 4 runs]
SMILES: CCc1c2c(nc3ccc(O)cc13)-c1cc3c(c(=O)n1C2)COC(=O)[C@]3(O)CC
viability, T/C (compound 0.003 µM): 2.73% [middle of 4 runs]
viability, T/C (compound 0.00949 µM): 1.18% [middle of 4 runs]
viability, T/C (compound 0.03 µM): 0.96% [middle of 4 runs]
viability, T/C (compound 0.0949 µM): 0.88% [middle of 4 runs]
viability, T/C (compound 0.3 µM): 0.94% [middle of 4 runs]
